Measurements from US20250034212A1, “PEPTIDE” (PEPTIDREAM INC., priority 2021, published 2025).
Starred links: 1 amine or outer side, 2 acyl side, 3 side chain; linkers in the order of their positions; H or OH if unused. Positions of bridges follow the written chain, without caps; N, C: chain ends. Non-standard residues stand in square brackets, D forms with d. Residues, ends and D or L forms follow the SMILES beside them. Groups on a side chain read outwards from the residue. *: point of attachment. CH3O(CH2CH2O)7C2H4CO = COCCOCCOCCOCCOCCOCCOCCOCCC(=O)*; Meglumine = CN(C[C@H](O)[C@@H](O)[C@H](O)[C@H](O)CO)*; Piperazinyl(4-CH2COOH) = O=C(O)CN1CCN(*)CC1; 1Nal = N[C@@H](Cc1cccc2ccccc12)C(=O)O; Gly(NCH2CH2Ph) = O=C(O)CNCCc1ccccc1; 4Pal = N[C@@H](Cc1ccncc1)C(=O)O; CO = O=C([*:1])[*:2]

Experiments:
recombinant human TGF-β1 [1] = molecular target: T1, recombinant human TGF-β1 (Homo sapiens, UniProt P01137); assay: SBE reporter assay in SBE reporter-HEK293 cells, TGF-β1 stimulation; format: cell-based; details: TGF-β1 0.13 nM, 18 hours; for inhibition at 62 pM: peptide 0.062 nM; for inhibition at 0.000185 µM: peptide 0.185 nM; for inhibition at 0.00056 µM: peptide 0.56 nM; for inhibition at 0.0017 µM: peptide 1.7 nM; for inhibition at 0.005 µM: peptide 5.0 nM; for inhibition at 0.015 µM: peptide 15.0 nM
T1 construct: purchased R&D systems
T1 sequence (P01137 279-390 limits assumed): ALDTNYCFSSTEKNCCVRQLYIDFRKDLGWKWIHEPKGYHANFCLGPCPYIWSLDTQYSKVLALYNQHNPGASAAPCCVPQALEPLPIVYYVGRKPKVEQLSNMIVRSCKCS
Method in brief: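 SBE luciferase reporter HEK293 cells in 0.5% FBS medium, preincubated 20 min with peptide, then stimulated 18 h with 0.13 nM recombinant human TGF-β1. Luminescence read; inhibition scaled with maximal TGF-β signal as 0% and unstimulated as 100%.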

recombinant human TGF-β1 [2] = molecular target: T1, recombinant human TGF-β1; assay: SPR intermolecular interaction test, TGF-β1 immobilized on CM3 sensor chip (Biacore T200); format: binding; details: Single Cycle Kinetics, human TGF-β1
Description: In this Example, (1) the activity of binding to TGF-β for various peptides consisting of the amino acid sequences set forth in SEQ ID NOs: 2-33 synthesized in Examples 1 to 5 and 7 was evaluated. (2) The activity and selectivity of binding of the peptide consisting of the amino acid sequence set forth in SEQ ID NO: 13 synthesized in Example 2 against two isoforms of TGF-β (TGF-β1 and β2) were checked. For this purpose, the intermolecular interaction of each peptide against TGF-β was tested by surface plasmon resonance (SPR) in the method described below. Specific test methods are described below.
A CM3 sensor chip (Global Life Science Technologies Japan Co., Ltd.) was inserted into a BiacoreT200 (Global Life Science Technologies Japan Co., Ltd.). Three priming runs were performed using running buffer: HBS-EP+ (Global Life Science Technologies Japan Co., Ltd.). The system was then equilibrated at a flow rate of 30 μL/min.
Subsequently, 50 μL of 60 mM EDC solution (Global Life Science Technologies Japan Co., Ltd.) and 50 μL of 650 mM NHS solution (Global Life Science Technologies Japan Co., Ltd.) were mixed. Next, the reaction was carried out at a flow rate of 10 μL/min for 420 seconds. Then, 150 μL of 0.2 μM TGF-β solution diluted in 10 mM acetic acid solution (pH 5.0) was prepared and reacted at a flow rate of 10 μL/min for 420 seconds to immobilize TGF-β on the CM3 sensor chip. TGF-β was human-derived TGF-β1 or β2 (recombinant human TGF-β1, 2) and was obtained from R&D systems. After immobilization, capping was performed by reacting with 1.0 M ethanolamine aqueous solution (Global Life Science Technologies Japan Co., Ltd.) at a flow rate of […] for 420 seconds.
A liquid prepared by dissolving each peptide at 10 mM in DMSO solution was diluted with running buffer to prepare a peptide-dissolved solution at a final concentration of 10 μM. Subsequently, 50 nM, 25 nM, 12.5 nM, 5 nM, and 2.5 nM peptide solutions were prepared. Using the above samples, the kinetics of each peptide against TGF-β was obtained by SPR measurement.
The kinetics evaluation model was Single Cycle Kinetics, and curve fitting was performed using Biacore T200 Evaluation Software Version 3.0 (Global Life Science Technologies Japan Co., Ltd.). The binding of various peptides to TGF-β was evaluated by performing least-squares curve fitting on the obtained sensorgram to calculate the KD value.

SMILES: CC(C)[C@@H]1NC(=O)CN(CCc2ccccc2)C(=O)[C@H](CCCCNC(=O)N(C)C[C@H](O)[C@@H](O)[C@H](O)[C@H](O)CO)NC(=O)[C@H](CC(=O)O)NC(=O)[C@H](Cc2ccncc2)NC(=O)[C@H](C(C)C)NC(=O)[C@H](CC(N)=O)NC(=O)[C@H](C(C)C)NC(=O)[C@H](C(C)C)NC(=O)[C@H](Cc2cccc3ccccc23)NC(=O)[C@H](Cc2ccccc2)NC(=O)CSC[C@@H](C(=O)NCC(N)=O)NC(=O)[C@H](CCCCNC(=O)N2CCN(CC(=O)O)CC2)NC(=O)[C@H](Cc2c[nH]cn2)NC(=O)[C@H](Cc2ccc(O)cc2)NC(=O)[C@H](Cc2cccc3ccccc23)NC1=O [TGFb1_023] ({CH2CO}-F[1Nal]VVNV[4Pal]DK([CO-Meglumine])[Gly(NCH2CH2Ph)]V[1Nal]YHK([CO-Piperazinyl(4-CH2COOH)])CG-NH2; thioether N-16)
- inhibition at 62 pM (recombinant human TGF-β1 [1]): 8.58%
- inhibition at 0.000185 µM (recombinant human TGF-β1 [1]): 24.4%
- inhibition at 0.00056 µM (recombinant human TGF-β1 [1]): 49.7%
- inhibition at 0.0017 µM (recombinant human TGF-β1 [1]): 82.3%
- inhibition at 0.005 µM (recombinant human TGF-β1 [1]): 96%
- inhibition at 0.015 µM (recombinant human TGF-β1 [1]): 99.5%
- Kd (recombinant human TGF-β1 [2]): 1.04 nM

SMILES: CC(C)[C@@H]1NC(=O)CN(CCc2ccccc2)C(=O)[C@H](CCC(=O)O)NC(=O)[C@H](CC(=O)O)NC(=O)[C@H](Cc2ccncc2)NC(=O)[C@H](C(C)C)NC(=O)[C@H](CC(N)=O)NC(=O)[C@H](CCCCNC(=O)N(C)C[C@H](O)[C@@H](O)[C@H](O)[C@H](O)CO)NC(=O)[C@H](C(C)C)NC(=O)[C@H](Cc2cccc3ccccc23)NC(=O)[C@H](Cc2ccccc2)NC(=O)CSC[C@@H](C(=O)NCC(N)=O)NC(=O)[C@H](CCCCNC(=O)N2CCN(CC(=O)O)CC2)NC(=O)[C@H](Cc2c[nH]cn2)NC(=O)[C@H](Cc2ccc(O)cc2)NC(=O)[C@H](Cc2cccc3ccccc23)NC1=O [TGFb1_024] ({CH2CO}-F[1Nal]VK([CO-Meglumine])NV[4Pal]DE[Gly(NCH2CH2Ph)]V[1Nal]YHK([CO-Piperazinyl(4-CH2COOH)])CG-NH2; thioether N-16)
- inhibition at 62 pM (recombinant human TGF-β1 [1]): 5.79%
- inhibition at 0.000185 µM (recombinant human TGF-β1 [1]): 16.6%
- inhibition at 0.00056 µM (recombinant human TGF-β1 [1]): 45%
- inhibition at 0.0017 µM (recombinant human TGF-β1 [1]): 80.2%
- inhibition at 0.005 µM (recombinant human TGF-β1 [1]): 95.5%
- inhibition at 0.015 µM (recombinant human TGF-β1 [1]): 98.9%
- Kd (recombinant human TGF-β1 [2]): 1.04 nM

SMILES: CC(C)[C@@H]1NC(=O)CN(CCc2ccccc2)C(=O)[C@H](CCCCNC(=O)N2CCN(CC(=O)O)CC2)NC(=O)[C@H](CC(=O)O)NC(=O)[C@H](Cc2ccncc2)NC(=O)[C@H](C(C)C)NC(=O)[C@H](CC(N)=O)NC(=O)[C@H](CCCCNC(=O)N(C)C[C@H](O)[C@@H](O)[C@H](O)[C@H](O)CO)NC(=O)[C@H](C(C)C)NC(=O)[C@H](Cc2cccc3ccccc23)NC(=O)[C@H](Cc2ccccc2)NC(=O)CSC[C@@H](C(=O)NCC(N)=O)NC(=O)[C@H](CCCCNC(=O)N2CCN(CC(=O)O)CC2)NC(=O)[C@H](Cc2c[nH]cn2)NC(=O)[C@H](Cc2ccc(O)cc2)NC(=O)[C@H](Cc2cccc3ccccc23)NC1=O [TGFb1_025] ({CH2CO}-F[1Nal]VK([CO-Meglumine])NV[4Pal]DK([CO-Piperazinyl(4-CH2COOH)])[Gly(NCH2CH2Ph)]V[1Nal]YHK([CO-Piperazinyl(4-CH2COOH)])CG-NH2; thioether N-16)
- inhibition at 62 pM (recombinant human TGF-β1 [1]): 4.81%
- inhibition at 0.000185 µM (recombinant human TGF-β1 [1]): 18.4%
- inhibition at 0.00056 µM (recombinant human TGF-β1 [1]): 43.3%
- inhibition at 0.0017 µM (recombinant human TGF-β1 [1]): 77.5%
- inhibition at 0.005 µM (recombinant human TGF-β1 [1]): 94.7%
- inhibition at 0.015 µM (recombinant human TGF-β1 [1]): 99.4%
- Kd (recombinant human TGF-β1 [2]): 0.83 nM

SMILES: CC(C)[C@@H]1NC(=O)CN(CCc2ccccc2)C(=O)[C@H](CCCCNC(=O)N(C)C[C@H](O)[C@@H](O)[C@H](O)[C@H](O)CO)NC(=O)[C@H](CC(=O)O)NC(=O)[C@H](Cc2ccncc2)NC(=O)[C@H](C(C)C)NC(=O)[C@H](CC(N)=O)NC(=O)[C@H](CCCCNC(=O)N(C)C[C@H](O)[C@@H](O)[C@H](O)[C@H](O)CO)NC(=O)[C@H](C(C)C)NC(=O)[C@H](Cc2cccc3ccccc23)NC(=O)[C@H](Cc2ccccc2)NC(=O)CSC[C@@H](C(=O)NCC(N)=O)NC(=O)[C@H](CCCCNC(=O)N2CCN(CC(=O)O)CC2)NC(=O)[C@H](Cc2c[nH]cn2)NC(=O)[C@H](Cc2ccc(O)cc2)NC(=O)[C@H](Cc2cccc3ccccc23)NC1=O [TGFb1_026] ({CH2CO}-F[1Nal]VK([CO-Meglumine])NV[4Pal]DK([CO-Meglumine])[Gly(NCH2CH2Ph)]V[1Nal]YHK([CO-Piperazinyl(4-CH2COOH)])CG-NH2; thioether N-16)
- inhibition at 62 pM (recombinant human TGF-β1 [1]): 6.85%
- inhibition at 0.000185 µM (recombinant human TGF-β1 [1]): 17.8%
- inhibition at 0.00056 µM (recombinant human TGF-β1 [1]): 41.4%
- inhibition at 0.0017 µM (recombinant human TGF-β1 [1]): 74.3%
- inhibition at 0.005 µM (recombinant human TGF-β1 [1]): 93.4%
- inhibition at 0.015 µM (recombinant human TGF-β1 [1]): 98%
- Kd (recombinant human TGF-β1 [2]): 1.03 nM

SMILES: CC(C)[C@@H]1NC(=O)CN(CCc2ccccc2)C(=O)[C@H](CCCCNC(=O)N(C)C[C@H](O)[C@@H](O)[C@H](O)[C@H](O)CO)NC(=O)[C@H](CC(=O)O)NC(=O)[C@H](Cc2ccncc2)NC(=O)[C@H](C(C)C)NC(=O)[C@H](CC(N)=O)NC(=O)[C@H](CCCCNC(=O)N(C)C[C@H](O)[C@@H](O)[C@H](O)[C@H](O)CO)NC(=O)[C@H](C(C)C)NC(=O)[C@H](Cc2cccc3ccccc23)NC(=O)[C@H](Cc2ccccc2)NC(=O)CSC[C@@H](C(=O)NCC(N)=O)NC(=O)[C@H](CCC(=O)O)NC(=O)[C@H](Cc2c[nH]cn2)NC(=O)[C@H](Cc2ccc(O)cc2)NC(=O)[C@H](Cc2cccc3ccccc23)NC1=O [TGFb1_030] ({CH2CO}-F[1Nal]VK([CO-Meglumine])NV[4Pal]DK([CO-Meglumine])[Gly(NCH2CH2Ph)]V[1Nal]YHECG-NH2; thioether N-16)
- inhibition at 62 pM (recombinant human TGF-β1 [1]): 10.9%
- inhibition at 0.000185 µM (recombinant human TGF-β1 [1]): 14.3%
- inhibition at 0.00056 µM (recombinant human TGF-β1 [1]): 29.9%
- inhibition at 0.0017 µM (recombinant human TGF-β1 [1]): 52.5%
- inhibition at 0.005 µM (recombinant human TGF-β1 [1]): 80.8%
- inhibition at 0.015 µM (recombinant human TGF-β1 [1]): 95.2%
- Kd (recombinant human TGF-β1 [2]): 1.13 nM

SMILES: COCCOCCOCCOCCOCCOCCOCCOCCC(=O)NCCCC[C@H](NC(=O)CNC(=O)[C@@H]1CSCC(=O)N[C@@H](Cc2ccccc2)C(=O)N[C@@H](Cc2cccc3ccccc23)C(=O)N[C@@H](C(C)C)C(=O)N[C@@H](C(C)C)C(=O)N[C@@H](CC(N)=O)C(=O)N[C@@H](C(C)C)C(=O)N[C@@H](Cc2ccncc2)C(=O)N[C@@H](CC(=O)O)C(=O)N[C@@H](CC(=O)O)C(=O)N(CCc2ccccc2)CC(=O)N[C@@H](C(C)C)C(=O)N[C@@H](Cc2cccc3ccccc23)C(=O)N[C@@H](Cc2ccc(O)cc2)C(=O)N[C@@H](Cc2c[nH]cn2)C(=O)N[C@@H](CCCCNC(=O)N2CCN(CC(=O)O)CC2)C(=O)N1)C(N)=O [TGFb1_031] ({CH2CO}-F[1Nal]VVNV[4Pal]DD[Gly(NCH2CH2Ph)]V[1Nal]YHK([CO-Piperazinyl(4-CH2COOH)])CGK(CH3O(CH2CH2O)7C2H4CO)-NH2; thioether N-16)
- inhibition at 62 pM (recombinant human TGF-β1 [1]): 9.29%
- inhibition at 0.000185 µM (recombinant human TGF-β1 [1]): 20.1%
- inhibition at 0.00056 µM (recombinant human TGF-β1 [1]): 51.9%
- inhibition at 0.0017 µM (recombinant human TGF-β1 [1]): 84.9%
- inhibition at 0.005 µM (recombinant human TGF-β1 [1]): 96.7%
- inhibition at 0.015 µM (recombinant human TGF-β1 [1]): 99.1%
- Kd (recombinant human TGF-β1 [2]): 0.91 nM
